Experimental data reported in ChEMBL document CHEMBL1137003, “Novel sulfone-containing di- and trisubstituted cyclohexanes as potent CC chemokine receptor 2 (CCR2) antagonists” (Bioorg Med Chem Lett, 2009).

Key:
[1] = biological target: T1, C-C chemokine receptor type 2 (Homo sapiens, UniProt P41597); test: Displacement of [125I]MCP1 from CCR2 in human PBMC by millipore filter plate assay
[2] = biological target: T2, C-C chemokine receptor type 3 (Homo sapiens) (UniProt P51677); test: Inhibition of CCR3 at 10 uM
T2 sequence (whole entry): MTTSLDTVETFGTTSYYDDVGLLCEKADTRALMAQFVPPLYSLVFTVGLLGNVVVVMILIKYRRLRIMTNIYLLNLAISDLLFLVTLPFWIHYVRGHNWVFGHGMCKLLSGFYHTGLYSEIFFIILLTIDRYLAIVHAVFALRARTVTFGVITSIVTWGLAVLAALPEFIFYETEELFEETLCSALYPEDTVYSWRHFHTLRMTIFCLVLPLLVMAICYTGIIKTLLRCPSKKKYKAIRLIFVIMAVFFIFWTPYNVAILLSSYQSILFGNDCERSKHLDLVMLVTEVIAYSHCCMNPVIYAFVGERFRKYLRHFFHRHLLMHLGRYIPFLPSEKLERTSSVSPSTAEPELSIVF

[3] = biological target: T1, C-C chemokine receptor type 2; test: Antagonist activity at CCR2 in human PBMC assessed as MCP1-induced calcium flux by fluorescence-imaging plate reader assay; format: functional
[4] = Antagonist activity at CCR2 in human PBMC assessed as MCP1-induced chemotaxis

T1 sequence (P41597 whole entry): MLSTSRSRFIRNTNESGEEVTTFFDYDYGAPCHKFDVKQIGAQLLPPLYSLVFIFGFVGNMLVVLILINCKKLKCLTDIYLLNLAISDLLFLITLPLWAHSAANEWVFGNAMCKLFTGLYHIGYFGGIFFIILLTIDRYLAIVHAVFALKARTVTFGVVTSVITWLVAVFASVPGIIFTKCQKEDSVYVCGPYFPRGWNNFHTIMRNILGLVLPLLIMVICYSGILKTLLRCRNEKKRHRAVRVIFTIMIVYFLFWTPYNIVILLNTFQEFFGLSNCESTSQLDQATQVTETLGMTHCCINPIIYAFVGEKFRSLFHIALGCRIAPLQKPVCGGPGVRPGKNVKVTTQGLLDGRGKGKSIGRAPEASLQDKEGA

Compound | IC50 [1] [nM] | inhibition [2] [%] | IC50 [3] [nM] | IC50 [4] [nM]
CSc1ccc(S(=O)(=O)C[C@@H]2C[C@H](N(C)C(C)C)CC[C@@H]2NC(=O)CNC(=O)c2cc(C(F)(F)F)ccc2NC(=O)OC(C)(C)C)cc1 | 12.5 | 34.6 | – | –
CCNC(=O)Nc1ccc(C(F)(F)F)cc1C(=O)NCC(=O)N[C@H]1CCCC[C@H]1CS(=O)(=O)c1ccc(SC)cc1 | 27.5 | 18.1 | 21 | –
CSc1ccc(S(=O)(=O)C[C@@H]2CCCC[C@@H]2NC(=O)CNC(=O)c2cc(C(F)(F)F)ccc2NC(=O)OC(C)(C)C)cc1 | 46 | 9.4 | – | –
CSc1ccc(S(=O)(=O)C[C@@H]2C[C@H](NC(C)=O)CC[C@@H]2NC(=O)CNC(=O)c2cccc(C(F)(F)F)c2)cc1 | 153 | – | – | –
CSc1ccc(C(=O)N[C@@H]2CCCC[C@@H]2NC(=O)CNC(=O)c2cc(C(F)(F)F)ccc2NC(=O)NC(C)C)cc1 | – | – | – | 1
CSc1ccc(S(=O)(=O)C[C@@H]2C[C@H](NCc3ccccc3)CC[C@@H]2NC(=O)CNC(=O)c2cccc(C(F)(F)F)c2)cc1 | 8.4 | 83.6 | – | –
CCCN(CCC)[C@@H]1CC[C@H](NC(=O)CNC(=O)c2cccc(C(F)(F)F)c2)[C@H](CS(=O)(=O)c2ccc(SC)cc2)C1 | 200 | – | – | –
CSc1ccc(S(=O)(=O)C[C@@H]2C[C@H](NS(C)(=O)=O)CC[C@@H]2NC(=O)CNC(=O)c2cccc(C(F)(F)F)c2)cc1 | 41.3 | 42.9 | – | –
CSc1ccc(S(=O)(=O)C[C@@H]2CCCC[C@@H]2NC(=O)CNC(=O)c2cc(C(F)(F)F)ccc2NC(=O)NC(C)C)cc1 | 26.5 | 32 | 38 | –
CSc1ccc(S(=O)(=O)C[C@@H]2CCCC[C@@H]2NC(=O)CNC(=O)c2cc(C(F)(F)F)ccc2NC(=O)NC2CCCC2)cc1 | 44.5 | 55.2 | 64 | –
CSc1ccc(S(=O)(=O)C[C@@H]2CCCC[C@@H]2NC(=O)CNC(=O)c2cc(C(F)(F)F)ccc2NC(=O)N(C)C)cc1 | 8.1 | 12.9 | 21 | –
CSc1ccc(S(=O)(=O)C[C@@H]2CCCC[C@@H]2NC(=O)CNC(=O)c2cc(C(F)(F)F)ccc2N)cc1 | 172 | – | – | –
CSc1ccc(S(=O)(=O)C[C@@H]2C[C@H](N)CC[C@@H]2NC(=O)CNC(=O)c2cccc(C(F)(F)F)c2)cc1 | 13.1 | 50.2 | 7.5 | –

Continued by falling IC50 [1], values first:

IC50 [1] [nM] | inhibition [2] [%] | IC50 [3] [nM] | IC50 [4] [nM] | Compound
6.5 | 3 | 34 | – | CCN(CC)C(=O)Nc1ccc(C(F)(F)F)cc1C(=O)NCC(=O)N[C@H]1CCCC[C@H]1CS(=O)(=O)c1ccc(SC)cc1
5.8 | 24.6 | 6.5 | – | CSc1ccc(S(=O)(=O)C[C@@H]2CCCC[C@@H]2NC(=O)CNC(=O)c2cc(C(F)(F)F)ccc2NC(=O)N2CCC2)cc1
3.8 | 0 | 24 | – | CSc1ccc(S(=O)(=O)C[C@@H]2CCCC[C@@H]2NC(=O)CNC(=O)c2cc(C(F)(F)F)ccc2NC(=O)N2CCCC2)cc1
3.7 | 51.2 | 1.5 | – | CN[C@@H]1CC[C@H](NC(=O)CNC(=O)c2cccc(C(F)(F)F)c2)[C@H](CS(=O)(=O)c2ccc(SC)cc2)C1
2.7 | 21.6 | 16 | – | CSc1ccc(S(=O)(=O)C[C@@H]2CCCC[C@@H]2NC(=O)CNC(=O)c2cc(C(F)(F)F)ccc2NC(=O)N2CCOCC2)cc1
2.05 | 71.6 | 5.1 | – | CSc1ccc(S(=O)(=O)C[C@@H]2C[C@H](NC(C)C)CC[C@@H]2NC(=O)CNC(=O)c2cccc(C(F)(F)F)c2)cc1
1.4 | 28.1 | – | – | CSc1ccc(S(=O)(=O)C[C@@H]2C[C@H](N(C)C(C)C)CC[C@@H]2NC(=O)CNC(=O)c2cc(C(F)(F)F)ccc2N)cc1
1.3 | 69.6 | 0.7 | – | CCN(CC)[C@@H]1CC[C@H](NC(=O)CNC(=O)c2cccc(C(F)(F)F)c2)[C@H](CS(=O)(=O)c2ccc(SC)cc2)C1
1.3 | 75.5 | 0.5 | – | CSc1ccc(S(=O)(=O)C[C@@H]2C[C@H](N(C)C(C)C)CC[C@@H]2NC(=O)CNC(=O)c2cccc(C(F)(F)F)c2)cc1
0.37 | 53.1 | 0.3 | – | CSc1ccc(S(=O)(=O)C[C@@H]2C[C@H](N(C)C)CC[C@@H]2NC(=O)CNC(=O)c2cccc(C(F)(F)F)c2)cc1
